Measurements: patent US6617450B1, “P-glycoproteins and uses thereof” (Becton Dickinson and Company, priority 1999, dated 2003)

Test system: cynomologous monkey PGP
Assay: Polarization of vinblastine transport across cynomologous monkey PGP transfected LLC-PK1 cell monolayers in Transwells
Format: cell-based, cynomologous monkey (Macaca fascicularis)
Settings: PGP transfected cells, relative to control cells; vinblastine (0.1 μM) transport in Transwells
Description: Cynomologous monkey PGP cDNA (SEQ ID NO:3) is introduced into a clonal population of LLC-PK 1 cells in a vector that confers resistance to hygromycin B. LLC-PK1 cells are obtained from the American Type Culture Collections and are propagated in Medium 199 supplemented to 7% with fetal bovine serum. LLC-PK1 cells are recloned prior to transfection in order to assure homogeneity of the cell population. Briefly, cynomologous monkey PGP cDNA is incorporated into the p222CMV vector. […] The PGP cDNA is under the control of the cytomegalovirus (CMV) immediate early promoter. […] Expression of PGP is measured by the polarization of vinblastine (0.1 μM) transport in Transwells™.
LLC-PK1 cell based transport studies are conducted in 24 well Transwells™(Corning Costar, Catalog number 3415). […] Transport is measured under sink conditions in both the apical to basolateral (A to B) and basolateral to apical (B to A) directions. […] Quantitation of the amount of compound transported is by liquid scintillation counting (vinblastine) or HPLC with UV or mass spectrometric detection.
Functional expression of cynomologous monkey PGP is measured by the polarization of transport of vinblastine.

- B to A/A to B ratio: much higher ratio
SMILES: CC[C@]1(O)C[C@@H]2CN(CCc3c([nH]c4ccccc34)[C@@](C(=O)OC)(c3cc4c(cc3OC)N(C)[C@H]3[C@@](O)(C(=O)OC)[C@H](OC(C)=O)[C@]5(CC)C=CCN6CC[C@]43[C@@H]65)C2)C1 [vinblastine]
